Legend:
in vivo [1] = assay: in vivo; parameters: species or system SCID mice; conditions: SCID, mouse, iv, 10 pmol peptide, total radioactivity, %ID/g tissue
Method: (§1) The human epidermoid A431 cell line transfected to stably express the CCK2R (A431-CCK2R(+)) or devoid of CCK2R expression (A431-CCK2R(−)) used for tumour induction in this work was a gift from Prof. O. Boerman (Department of Nuclear Medicine, Radboud University Nijmegen Medical Centre, Nijmegen, The Netherlands) and Prof. L. Aloj (Istituto di Biostrutture e Bioimmagini, Consiglio Nazionale delle Ricerche, Naples, Italy) and cells were cultured as previously reported ([Aloj et al., 2004]). Suspensions of freshly harvested A431-CCK2R(±) cells (~150 μL, 1.6 × 10^7/1.4 × 10^7) in normal saline were subcutaneously injected in the flanks of mice.
(§2) Animals were euthanized in groups of four at 1 h, 4 h and 24 h pi; in a separate 4-h group animals received gelofusine (100 μL) together with the radioligand. […] Mice were dissected and samples of blood and tissues of interest as well as tumours were excised, weighted and counted for radioactivity in the gamma counter. Data was calculated as percent injected dose per gram tissue (%ID/g) with the aid of suitable standards of the injected dose and represent mean ± SD. In all above experiments, analysis of the solution used in the biodistribution experiment was conducted prior to and after completion of all animal injections.
(§3) Statistical analysis using the unpaired two-tailed Student’s t-test was performed to compare values between A431-CCK2R(+) and A431-CCK2R(−) tumours, as well as kidney, stomach and A431-CCK2R(+) tumour values between 4 h control and gelofusine-treated animal groups; values P < 0.05 were considered statistically significant (Table 2). The pharmacokinetic profile was determined by fitting an exponential curve through the organ time-activity data according to the least-squares method. The number of exponentials in the fitted curve was analysed according to the Aikake Information Criterion (AICc). All fitting was performed with Graphpad Prism version 5.

A431-CCK2R(±) xenografts = assay: in vivo; parameters: species or system SCID mice; conditions: SCID, mouse, iv, 10 pmol peptide, 4 h
Method: as §1, §2, §3

in vivo [2] = assay: in vivo; parameters: species or system Swiss albino mice; conditions: mouse; for tissue uptake at 0.5 h / tissue uptake at 1 h / tissue uptake at 4 h / tissue uptake at 48 h / tissue uptake at 72 h / tissue uptake at 24 h: Swiss albino, iv, 10 pmol peptide, total radioactivity, %ID/g tissue
Method: as §3, with “Samples of blood and tissues of interest were excised, weighted and counted for radioactivity in the gamma counter (automated well-type multi-sample gamma counter; NaI(Tl) 3'' crystal, Canberra Packard Auto-Gamma 5000 series instrument). Data was calculated as percent injected dose per gramtissue (%ID/g) with the aid of suitable standards of the injected dose. Statistical” for “Statistical”, “Student's” for “Student’s”, “A431-CCK2R(-)” for “A431-CCK2R(−)”, “Aikake” left out

## CSCC[C@H](NC(=O)[C@H](Cc1c[nH]c2ccccc12)NC(=O)CNC(=O)[C@H](Cc1ccc(O)cc1)NC(=O)[C@H](C)NC(=O)[C@@H](CCC(=O)O)NC(=O)[C@@H](CCC(=O)O)NC(=O)[C@@H](CCC(=O)O)NC(=O)[C@@H](CCC(=O)O)NC(=O)[C@@H](CCC(=O)O)NC(=O)[C@@H](CCC(=O)O)NC(=O)CN1CCN(CC(=O)O)CCN(CC(=O)O)CCN(CC(=O)O)CC1)C(=O)N[C@@H](CC(=O)O)C(=O)N[C@@H](Cc1ccccc1)C(N)=O [^111In-CP04, ^111In-DOTA-(DGlu)6-Ala-Tyr-Gly-Trp-Met-Asp-Phe-NH2, metal not drawn]
In vivo [1]; Blood
  tissue uptake at 1 h: 0.55 ± 0.17 %ID/g
  tissue uptake at 4 h: 0.02 ± 0.01 %ID/g
In vivo [1]; Femur
  tissue uptake at 1 h: 0.96 ± 0.46 %ID/g
  tissue uptake at 4 h: 0.3 ± 0.22 %ID/g
  tissue uptake at 24 h: 0.24 ± 0.09 %ID/g
In vivo [1]; Heart
  tissue uptake at 1 h: 0.24 ± 0.08 %ID/g
  tissue uptake at 4 h: 0.02 ± 0.01 %ID/g
  tissue uptake at 24 h: 0.02 %ID/g
In vivo [1]; Intestines
  tissue uptake at 1 h: 0.36 ± 0.13 %ID/g
  tissue uptake at 4 h: 0.22 ± 0.08 %ID/g
  tissue uptake at 24 h: 0.1 ± 0.04 %ID/g
In vivo [1]; Kidneys
  tissue uptake at 1 h: 5.53 ± 0.78 %ID/g
  tissue uptake at 4 h: 5.55 ± 0.94 %ID/g
  tissue uptake at 24 h: 3.29 ± 0.56 %ID/g
In vivo [1]; Liver
  tissue uptake at 1 h: 0.38 ± 0.12 %ID/g
  tissue uptake at 24 h: 0.01 ± 0.01 %ID/g
In vivo [1]; Lung
  tissue uptake at 1 h: 0.47 ± 0.13 %ID/g
  tissue uptake at 4 h: 0.04 ± 0.01 %ID/g
  tissue uptake at 24 h: 0.03 ± 0.01 %ID/g
In vivo [1]; Muscle
  tissue uptake at 4 h: 0.03 ± 0.02 %ID/g
  tissue uptake at 24 h: 0.01 ± 0.01 %ID/g
In vivo [1]; Pancreas
  tissue uptake at 1 h: 0.23 ± 0.08 %ID/g
  tissue uptake at 4 h: 0.06 ± 0.01 %ID/g
  tissue uptake at 24 h: 0.05 ± 0.01 %ID/g
In vivo [1]; Spleen
  tissue uptake at 4 h: 0.04 ± 0.02 %ID/g
  tissue uptake at 24 h: 0.05 ± 0.01 %ID/g
In vivo [1]; Stomach
  tissue uptake at 1 h: 2.6 ± 0.48 %ID/g
  tissue uptake at 4 h: 2.09 ± 0.32 %ID/g
  tissue uptake at 24 h: 1.58 ± 0.15 %ID/g
In vivo [1]; Tumour(+) (A431-CCK2R(+))
  tissue uptake at 1 h: 12.6 ± 1.73 %ID/g
  tissue uptake at 4 h: 9.24 ± 1.35 %ID/g
  tissue uptake at 24 h: 4.98 ± 0.56 %ID/g
In vivo [1]; Tumour(–) (A431-CCK2R(–))
  tissue uptake at 1 h: 1.07 ± 0.29 %ID/g
  tissue uptake at 24 h: 0.1 ± 0.02 %ID/g
A431-CCK2R(±) xenografts
  %ID/g tissue, Intestines: 0.29 ± 0.18 %ID/g
  %ID/g tissue, Kidneys: 6.52 %ID/g
  %ID/g tissue, Liver: 0.12 ± 0.02 %ID/g
  %ID/g tissue, Stomach: 1.63 ± 0.20 %ID/g
  %ID/g tissue, Tumour(+) (A431-CCK2R(+)): 8.49 %ID/g
In vivo [2]; Blood
  tissue uptake at 0.5 h: 1.74 ± 0.22 %ID/g
  tissue uptake at 1 h: 0.51 ± 0.14 %ID/g
  tissue uptake at 4 h: 0.02 ± 0.01 %ID/g
  tissue uptake at 48 h: 0.01 ± 0.01 %ID/g
  tissue uptake at 72 h: 0.01 ± 0.01 %ID/g
In vivo [2]; Femur
  tissue uptake at 0.5 h: 4.62 ± 1.24 %ID/g
  tissue uptake at 1 h: 2.62 ± 0.42 %ID/g
  tissue uptake at 4 h: 0.96 ± 0.18 %ID/g
  tissue uptake at 24 h: 0.53 ± 0.04 %ID/g
  tissue uptake at 48 h: 0.55 ± 0.11 %ID/g
  tissue uptake at 72 h: 0.49 ± 0.06 %ID/g
In vivo [2]; Heart
  tissue uptake at 0.5 h: 0.7 ± 0.1 %ID/g
  tissue uptake at 4 h: 0.03 ± 0.01 %ID/g
  tissue uptake at 24 h: 0.02 ± 0.01 %ID/g
  tissue uptake at 48 h: 0.02 ± 0.01 %ID/g
  tissue uptake at 72 h: 0.03 ± 0.02 %ID/g
In vivo [2]; Intestines
  tissue uptake at 0.5 h: 0.82 ± 0.14 %ID/g
  tissue uptake at 1 h: 0.39 ± 0.12 %ID/g
  tissue uptake at 4 h: 1.05 ± 0.35 %ID/g
  tissue uptake at 48 h: 0.08 ± 0.02 %ID/g
  tissue uptake at 72 h: 0.09 ± 0.04 %ID/g
In vivo [2]; Kidneys
  tissue uptake at 0.5 h: 9.8 ± 2.07 %ID/g
  tissue uptake at 1 h: 8.84 ± 2.05 %ID/g
  tissue uptake at 4 h: 7.9 ± 1.98 %ID/g
  tissue uptake at 24 h: 3.61 ± 0.31 %ID/g
  tissue uptake at 48 h: 2.81 ± 0.63 %ID/g
  tissue uptake at 72 h: 2.62 ± 0.24 %ID/g
In vivo [2]; Liver
  tissue uptake at 0.5 h: 0.77 ± 0.11 %ID/g
  tissue uptake at 1 h: 0.32 ± 0.15 %ID/g
  tissue uptake at 24 h: 0.06 ± 0.01 %ID/g
  tissue uptake at 48 h: 0.06 %ID/g
  tissue uptake at 72 h: 0.05 ± 0.01 %ID/g
In vivo [2]; Lung
  tissue uptake at 0.5 h: 1.05 ± 0.1 %ID/g
  tissue uptake at 1 h: 0.4 ± 0.1 %ID/g
  tissue uptake at 4 h: 0.06 ± 0.01 %ID/g
  tissue uptake at 24 h: 0.03 ± 0.01 %ID/g
  tissue uptake at 48 h: 0.02 ± 0.01 %ID/g
  tissue uptake at 72 h: 0.03 ± 0.01 %ID/g
In vivo [2]; Muscle
  tissue uptake at 0.5 h: 0.59 ± 0.1 %ID/g
  tissue uptake at 4 h: 0.04 ± 0.02 %ID/g
  tissue uptake at 24 h: 0.02 ± 0.01 %ID/g
  tissue uptake at 48 h: 0.03 ± 0.02 %ID/g
  tissue uptake at 72 h: 0.03 ± 0.02 %ID/g
In vivo [2]; Pancreas
  tissue uptake at 0.5 h: 0.67 ± 0.08 %ID/g
  tissue uptake at 4 h: 0.1 ± 0.01 %ID/g
  tissue uptake at 24 h: 0.05 ± 0.01 %ID/g
  tissue uptake at 48 h: 0.04 ± 0.01 %ID/g
  tissue uptake at 72 h: 0.06 ± 0.03 %ID/g
In vivo [2]; Spleen
  tissue uptake at 0.5 h: 0.36 ± 0.04 %ID/g
  tissue uptake at 4 h: 0.05 ± 0.01 %ID/g
  tissue uptake at 24 h: 0.04 ± 0.01 %ID/g
  tissue uptake at 48 h: 0.03 ± 0.01 %ID/g
  tissue uptake at 72 h: 0.04 ± 0.01 %ID/g
In vivo [2]; Stomach
  tissue uptake at 0.5 h: 4.88 ± 0.85 %ID/g
  tissue uptake at 1 h: 2.99 ± 0.55 %ID/g
  tissue uptake at 4 h: 2.61 ± 0.82 %ID/g
  tissue uptake at 24 h: 1.48 ± 0.55 %ID/g
  tissue uptake at 48 h: 1.26 ± 0.26 %ID/g
  tissue uptake at 72 h: 0.92 ± 0.04 %ID/g
In vivo [2]
  gastrointestinal tract clearance: 2.5%
  total body clearance T1/2, fast component (90%): 17 min
  total body clearance, fraction of fast component: 90%
  total body clearance, fraction of slow component: 10%

Source: article PMC4948680 (European journal of pharmaceutical sciences : official …, 2016)
